Experimental data taken from patent US20060106014A1, “Methods for treating diabetes” (priority 2004, published 2006).

Legend:
[1] = target: T1, porcine leukocyte 12/15-lipoxygenase (Sus scrofa, UniProt P16469); assay: 12/15-Lipoxygenase Enzyme Assay (colorimetric, ferric oxidation of xylenol orange); assay type: biochemical; details: read-out: in vitro IC50 value in a 12/15-LO enzyme assay
T1 construct: purchased Cayman 60300
T1 sequence (P16469 1-663): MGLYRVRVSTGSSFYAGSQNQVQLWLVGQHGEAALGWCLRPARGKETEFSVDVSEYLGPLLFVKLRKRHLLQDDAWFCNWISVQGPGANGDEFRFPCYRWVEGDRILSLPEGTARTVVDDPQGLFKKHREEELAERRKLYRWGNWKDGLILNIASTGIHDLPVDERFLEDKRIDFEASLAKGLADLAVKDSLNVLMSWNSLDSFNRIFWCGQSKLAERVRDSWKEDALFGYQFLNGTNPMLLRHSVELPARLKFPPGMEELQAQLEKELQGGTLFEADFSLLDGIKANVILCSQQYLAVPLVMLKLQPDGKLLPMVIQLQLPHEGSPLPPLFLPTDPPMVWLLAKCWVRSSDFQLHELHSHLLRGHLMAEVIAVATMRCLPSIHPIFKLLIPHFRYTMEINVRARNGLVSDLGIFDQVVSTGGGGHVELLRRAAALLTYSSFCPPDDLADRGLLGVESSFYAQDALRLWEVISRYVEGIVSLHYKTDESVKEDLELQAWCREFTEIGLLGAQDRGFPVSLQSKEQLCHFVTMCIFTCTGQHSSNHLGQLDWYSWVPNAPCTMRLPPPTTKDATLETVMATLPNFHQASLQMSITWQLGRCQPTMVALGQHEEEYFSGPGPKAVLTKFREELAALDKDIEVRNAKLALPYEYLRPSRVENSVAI
Procedure: This procedure was used for measuring the enzymatic activity of porcine leukocyte 12/15-lipoxygenase using a colorimetric method based on the ferric oxidation of xylenol orange.
(§1) The test compound and/or vehicle were added to 1.3 μL 12/15-lipoxygenase in 50 mM Tris-HCl buffer, pH 7.4. The reaction was initiated by addition of 70 μM arachidonic acid in Tris-HCl buffer, pH 7.4, and terminated after a 10 minute incubation at room temperature by addition of FOX reagent (25 mM sulphuric acid, 100 μM xylenol orange, 100 μM iron (II) sulphate, methanol:water 9:1). The yellow color of acidified xylenol orange was converted to a blue color by the lipid hydroperoxide-mediated oxidation of Fe^2+ ions and the interaction of the resulting Fe^3+ ions with the dye. The complex was allowed to form during a 1 hour incubation at room temperature with shaking. Absorbance of the Fe^3+ complex was then measured at 620 nm using a spectrophotometer.
Negative controls contained enzyme during the incubation step but substrate was not added until after the FOX reagent.

5-lipoxygenase = target: T2, 5-lipoxygenase (Homo sapiens, UniProt P09917); assay: 5-Lipoxygenase Enzyme Assay (colorimetric, ferric oxidation of xylenol orange); assay type: biochemical; design: purchased Cayman 60402; details: read-out: in vitro IC50 value in a 5-LO enzyme assay
T2 sequence (P09917 1-674): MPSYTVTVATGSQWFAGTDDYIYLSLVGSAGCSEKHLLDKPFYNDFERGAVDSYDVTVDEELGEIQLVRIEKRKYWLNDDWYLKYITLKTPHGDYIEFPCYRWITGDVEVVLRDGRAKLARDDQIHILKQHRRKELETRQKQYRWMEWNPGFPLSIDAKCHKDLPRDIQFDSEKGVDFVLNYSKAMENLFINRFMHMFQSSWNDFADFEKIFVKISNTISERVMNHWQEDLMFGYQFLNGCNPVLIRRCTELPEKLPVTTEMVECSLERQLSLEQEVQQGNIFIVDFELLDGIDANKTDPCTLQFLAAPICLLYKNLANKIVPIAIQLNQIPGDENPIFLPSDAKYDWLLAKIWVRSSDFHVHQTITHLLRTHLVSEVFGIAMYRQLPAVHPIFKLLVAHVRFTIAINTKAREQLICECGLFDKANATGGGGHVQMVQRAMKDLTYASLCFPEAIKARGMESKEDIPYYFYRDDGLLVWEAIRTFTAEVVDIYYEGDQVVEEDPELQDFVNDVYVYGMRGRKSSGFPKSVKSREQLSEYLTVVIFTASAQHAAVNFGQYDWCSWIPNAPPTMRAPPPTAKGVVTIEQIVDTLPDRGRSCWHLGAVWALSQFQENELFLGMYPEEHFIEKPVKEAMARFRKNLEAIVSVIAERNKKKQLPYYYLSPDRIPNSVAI
Procedure: This procedure was used for measuring the enzymatic activity of human recombinant 5-lipoxygenase using a colorimetric method based on the ferric oxidation of xylenol orange.
as §1, with “was” for “were”, “0.5” for “1.3”, “5-lipoxygenase” for “12/15-lipoxygenase”, “spectrophotometer. Negative controls contained enzyme during the incubation step but substrate was not added until after the FOX reagent.” for “spectrophotometer.”

| SMILES | IC50 [1] [µM] | IC50 (5-lipoxygenase) [µM] |
| --- | --- | --- |
| COCOc1ccc(C=Cc2ccc(C(F)(F)F)cc2)cc1OCOC [1,2-bis-methoxymethoxy-4-[2-(4-trifluoromethyl-phenyl)-vinyl]-benzene] | < 5 | < 5 |
| Cc1c(O)c(C)c(C(F)(F)F)c2c1CCC(C)(C)O2 [2,2,5,7-tetramethyl-8-(trifluoromethyl)chroman-6-ol] | < 5 | < 5 |
| Cc1c(O)c(CCC(C)C)c(C)c2c1CCC(C)(C)O2 [2,2,5,8-tetramethyl-7-(3-methyl-butyl)-chroman-6-ol] | < 5 | < 5 |
| CC1(C)CCc2cc(O)c3cccc(O)c3c2O1 [2,2-dimethyl-3,4-dihydro-2H-benzo[h]chromene-6,10-diol] | < 5 | < 5 |
| Cc1c(C)c2c(c(C)c1O)CCC(C)(c1cccs1)O2 (stereo not drawn) [2,5,7,8-tetramethyl-2-(thiophen-2-yl)chroman-6-ol] | < 5 | < 5 |
| Cc1c(C)c2c(c(C)c1O)CCC(C)(C=Cc1ccccc1)O2 (stereo not drawn) [2,5,7,8-tetramethyl-2-styrylchroman-6-ol] | < 5 | < 5 |
| Cc1cc(C=Cc2ccc([N+](=O)[O-])cc2)cc(C)c1O [2,6-dimethyl-4-[2-(4-nitro-phenyl)-vinyl]-phenol] | < 5 | < 5 |
| Cc1c(O)cc2c(c1C)OC(C)(CCCl)CC2 (stereo not drawn) [2-(2-chloro-ethyl)-2,7,8-trimethyl-chroman-6-ol] | < 5 | < 5 |
| Cc1c(C)c2c(c(C)c1O)CCC(C)(c1cc(F)c(O)c(F)c1)O2 (stereo not drawn) [2-(3,5-difluoro-4-hydroxyphenyl)-2,5,7,8-tetramethylchroman-6-ol] | < 5 | < 5 |
| Oc1ccc(C=Cc2ccc(O)c(O)c2)c(O)c1 [4-(2,4-dihydroxystyryl)benzene-1,2-diol] | < 5 | < 5 |
| N#Cc1ccc(CCc2cc(O)c(O)c(O)c2)cc1 [4-(3,4,5-trihydroxyphenethyl)benzonitrile] | < 5 | < 5 |
| N#Cc1ccc(C=Cc2ccc(O)c(O)c2O)cc1 [4-[2-(2,3,4-trihydroxy-phenyl)-vinyl]-benzonitrile] | < 5 | < 5 |
| COC(=O)c1ccc(C=Cc2ccc(O)c(O)c2)cc1 [4-[2-(3,4-dihydroxy-phenyl)-vinyl]-benzoic acid methyl ester] | < 5 | < 5 |
| Oc1ccc(C=Cc2ccc(Br)cc2)cc1O [4-[2-(4-bromo-phenyl)-vinyl]-benzene-1,2-diol] | < 5 | < 5 |
| O=[N+]([O-])c1ccc(C=Cc2ccc(O)c(O)c2)cc1 [4-[2-(4-nitro-phenyl)-vinyl]-benzene-1,2-diol] | < 5 | < 5 |
| COCOc1ccc(C=Cc2ccc(C(C)(C)C)cc2)cc1OCOC [4-[2-(4-tert-Butyl-phenyl)-vinyl]-1,2-bis-methoxymethoxy-benzene] | < 5 | < 5 |
| COC(=O)c1ccc(C=Cc2ccc(O)c(O)c2CC=C(C)C)cc1 [4-{2-[3,4-dihydroxy-2-(3-methyl-but-2-enyl)-phenyl]-vinyl}benzoic acid methyl ester] | < 5 | < 5 |
| O=S(=O)(c1ccc(C=Cc2ccc(O)c(O)c2)cc1)N1CCCCC1 [4-{2-[4-(piperidine-1-sulfonyl)-phenyl]-vinyl}benzene-1,2-diol] | < 5 | < 5 |
| CC(C)=CCc1cc(C=Cc2ccc(N(C)C)cc2)cc(O)c1O [5-(4-(dimethylamino)styryl)-3-(3-methylbut-2-enyl)benzene-1,2-diol] | < 5 | < 5 |
| CNc1ccc(C=Cc2cc(O)c(O)c(CC=C(C)C)c2)cc1 [5-(4-(methylamino)styryl)-3-(3-methylbut-2-enyl)benzene-1,2-diol] | < 5 | < 5 |
| O=[N+]([O-])c1ccc(CCc2cc(O)c(O)c(O)c2)cc1 [5-(4-nitrophenethyl)benzene-1,2,3-triol] | < 5 | < 5 |
| Cc1c(C)c2c(c(-c3ccco3)c1O)CCC(C)(C)O2 [5-(furan-2-yl)-2,2,7,8-tetramethylchroman-6-ol] | < 5 | < 5 |
| C=CCSCc1c(O)c(C)c(C)c2c1CCC(C)(C)O2 [5-allylsulfanylmethyl-2,2,7,8-tetramethyl-chroman-6-ol] | < 5 | < 5 |
| Cc1c(C)c2c(c(Cl)c1O)CCC(C)(C)O2 [5-chloro-2,2,7,8-tetramethylchroman-6-ol] | < 5 | < 5 |
| COc1c(O)c(C)c(C)c2c1CCC(C)(C)O2 [5-methoxy-2,2,7,8-tetramethylchroman-6-ol] | < 5 | < 5 |
| Cc1c(O)c(Br)c(C)c2c1CCC(C)(C)O2 [7-bromo-2,2,5,8-tetramethyl-chroman-6-ol] | < 5 | < 5 |
| Cc1c(O)c(C)c2c(c1I)OC(C)(C)CC2 [8-iodo-2,2,5,7-tetramethylchroman-6-ol] | < 5 | < 5 |
| Cc1c(O)c(C)c2c(c1CCC(C)C)OC(C)(C)CC2 [8-isopentyl-2,2,5,7-tetramethylchroman-6-ol] | < 5 | < 5 |
| CC(=O)Nc1ccc(C=Cc2ccc(O)c(O)c2)cc1 [N-{4-[2-(3,4-dihydroxy-phenyl)-vinyl]-phenyl}acetamide] | < 5 | < 5 |
| CS(=O)(=O)Nc1ccc(C=Cc2ccc(O)c(O)c2)cc1 [N-{4-[2-(3,4-dihydroxy-phenyl)-vinyl]-phenyl}methanesulfonamide] | < 5 | < 5 |
